# Data: patent US11974551B2, “L-serine compositions, methods and uses for treating neurodegenerative diseases and disorders” (priority 2011, dated 2024)
# Entries after “also recorded” stand apart in the source; their conditions may differ.
# Experiments:
# Drosophila fruit flies = assay: Fruit fly feeding: mortality after three days; assay type: in vivo, Drosophila melanogaster; settings: media with 25 mM BMAA and 25 mM L-Serine, three days
# Description: Preliminary studies show the ability of L-Serine to prevent misincorporation of BMAA into proteins. In a series of feeding experiments, Drosophila fruit flies were fed four different types of media: 1) standard fruit fly media with 0 mM BMAA (control), 2) media enriched with 25 mM L-Serine, 3) media with 25 mM BMAA added, and 4) media with both 25 mM BMAA and 25 mM L-Serine added for three days of feeding. Misincorporation of BMAA into proteins was then analyzed using triple quadrupole LC/MS/MS and Orbital Trap LC/MS/MS.
# Equally interesting is the analysis of the protective value of L-Serine on Drosophila dosed with BMAA. Fruit flies fed with BMAA enriched media (third set of blocks) suffered a 40% mortality after three days, while flies fed with Serine plus BMAA (fourth set of blocks) had no mortality (FIG. 8). These flies were rescued by L-Serine.
# MRC-5 cells [1] = assay: Protein-bound non-labeled BMAA in hydrolysed cell proteins by triple quadrupole LC/MS/MS; assay type: cell-based, human; settings: BMAA 250-1000 μM with L-serine 250-1000 μM, or CHX
# Description: After incubation with ^3H-BMAA or cold BMAA, cells were washed three times with PBS, lysed by freeze thawing in Triton-X-100 (0.1%) and cell proteins precipitated in TCA (5%). Protein pellets were washed three times with TCA (5%) and hydrolysed in boiling 6 M HCl at 110° C. for 16 hours as previously described (Mondo, et al., Mar Drugs 10, 509-520 (2012)). Protein pellets were freeze-dried and reconstituted in 20 mM HCl. Particulates were removed by centrifugation through […] membranes and the hydrolysate derivatized in AccQ·Tag (Waters Corporation, Australia). Amino acids were separated on a Waters C-18 column using a method and gradient as described previously (Mondo, et al., Mar Drugs 10, 509-520 (2012)). For recovery of radiolabel in hydrolysed samples, fractions were collected manually every minute for 40 minutes, diluted into 5 ml scintillant (Ultima Gold™ scintillant, Perkin Elmer) and disintegrations per minute (DPM) determined by LSC.
# To further confirm that BMAA was present in cell proteins and incorporation was inhibited by L-serine, MRC-5 cells were incubated with a range of concentrations of BMAA (250-1000 μM) or BMAA with L-serine (250-1000 μM) and hydrolysed cell proteins were analyzed by tandem mass spectroscopy on a triple quadrupole LC/MS/MS. […]
# MRC-5 cells [2] = assay: Autofluorescence imaging of cells; assay type: cell-based, human; settings: BMAA 300 μM with L-serine 300 μM, 96 hours
# Description: MRC-5 cells were incubated in DMEM supplemented with 300 μM BMAA in the presence or absence of 300 μM L-serine for 96 hours with daily medium changes. Cellular autofluorescence was visualized using an inverted fluorescent microscope (Olympus IX71) as described previously (Dunlop, et al., Biochem J 410, 131-140 (2008)).
# MRC-5 cells [3] = assay: Incorporation of 3H-BMAA radiolabel into cell proteins (TCA precipitation, liquid scintillation counting); assay type: cell-based, human; settings: 3H-BMAA 31.25 nM, 16 hours
# Description: MRC-5 cells were incubated with ^3H-BMAA (31.25 nM) in HBSS containing 10% FCS. After 2, 4, and 16 hours, cells were washed three times in phosphate buffered saline and lysed by freeze-thawing in Triton X-100. The protein concentration in the lysate was determined using the bicinchoninic acid assay (BCA) (Smith, et al., Anal Biochem 150, 76-85 (1985)) (and radiolabel in the cell lysate quantified by liquid scintillation counting (LSC). Cell proteins were then isolated by trichloroacetic acid (TCA) (5%) precipitation washed three times in TCA (5%) and dissolved in formic acid.
# To determine if incorporation of radiolabel into proteins was protein synthesis dependent MRC-5, SH-SY5Y and HUVEC cells were incubated with ^3H-BMAA (31.25 nM) with or without CHX 2 μg/ml for 16 hours. The amount of radiolabel present in cell proteins in the CHM-treated cultures was expressed relative to that of control cultures, which was set at 100%. Parallel cultures of MRC-5 cells were incubated with ^3H-leucine (41 nM) with or without CHX 2 μg/ml under identical culture conditions and processed as before.
# To examine the ability of individual amino acids to reduce incorporation or radiolabel into proteins, MRC-5 cells were incubated with ^3H-BMAA (31.25 nM) for 16 hours in the presence of individual amino acids (250 μM) and the radiolabel present in the cell proteins assessed as before. All of the 20 protein amino acids (L-isomers) were examined individually in triplicate cell cultures. […] Incorporation of radiolabel was determined relative to cells incubated in medium containing no serine. MRC-5 cells were then incubated with ^3H-BMAA (31.25 nM) for 16 hours in HBSS alone, HBSS containing all 20 protein amino acids (400 μM) or 19 protein amino acids except L-serine and the amount of radiolabel in cell protein assessed as before.
structure (smiles),measurement,setting,value
N[C@@H](CO)C(=O)O [L-serine],mortality of flies fed BMAA plus L-Serine,Drosophila fruit flies,blocks BMAA induced mortality
same,mortality of flies fed BMAA plus L-Serine,Drosophila fruit flies; listed as L-Serine,no mortality
same,effect on incorporation of non-labeled BMAA into cell proteins,MRC-5 cells [1],inhibited
same,effect on BMAA-induced formation of autofluorescent bodies,MRC-5 cells [2],prevented the formation of autofluorescent bodies
same,incorporation of BMAA into proteins when L-serine was omitted from the amino acid mixture,MRC-5 cells [3]; 19 protein amino acids 400 μM without L-serine,significantly increased
same,effect on incorporation of 3H-BMAA into cell proteins,"MRC-5 cells [3]; L-serine 0, 50, 100 and 250 μM",inhibited in the presence of L-serine in a concentration-dependent manner; also recorded: inhibition of incorporation of radiolabel into cell proteins
